In brackets after ≈: the same amount, converted by molar mass.
Columns and labels:
Format in all cases: functional
Escherichia coli [1] = assay: Antibacterial activity against Escherichia coli wild-type
Pseudomonas aeruginosa = assay: Antibacterial activity against Pseudomonas aeruginosa wild-type
Pasteurella multocida = assay: Antibacterial activity against Pasteurella multocida wild-type
Acinetobacter baumannii = assay: Antibacterial activity against Acinetobacter baumannii resistant to (ERY) erythromycin;
[2] = tested on: Mycobacterium tuberculosis; assay: Antibacterial activity against Mycobacterium tuberculosis TN913
[3] = tested on: Mycobacterium tuberculosis; assay: Antibacterial activity against Mycobacterium tuberculosis TN1618 (P)
Klebsiella pneumoniae [4] = assay: Antibacterial activity against Klebsiella pneumoniae resistant to (AMP) ampicillin; (GEN) gentamicin; NAL (nalidixic acid); (TET) tetracycline
Escherichia coli [5] = assay: Antibacterial activity against Escherichia coli resistant to (GEN) gentamicin; (RIF) rifampicin; (SM) streptomycin; (SP) spectinomycin; (SU) sulfonamides; (TET) tetracycline; (Hg)mercury
Citrobacter freundii = assay: Antibacterial activity against Citrobacter freundii resistant to (GEN) gentamicin; (ERY) erythromycin;
Klebsiella pneumoniae [6] = assay: Antibacterial activity against Klebsiella pneumoniae
[7] = tested on: Mycobacterium tuberculosis; assay: Antibacterial activity against Mycobacterium tuberculosis TN565 (W)
Enterobacter cloacae = assay: Antibacterial activity against Enterobacter cloacae resistant to (ERY) erythromycin;
Citrobacter koseri = assay: Antibacterial activity against Citrobacter diversus
Salmonella sp. = assay: Antibacterial activity against Salmonella species. resistant to (AMP) ampicillin; (ERY) erythromycin
[8] = tested on: Mycobacterium tuberculosis; assay: Antibacterial activity against Mycobacterium tuberculosis H37Rv
Escherichia coli [9] = assay: Antibacterial activity against Escherichia coli resistant to (AMP) ampicillin;) KAN) kanamycin; (NM) neomycin; (RIF) rifampicin; (TET) tetracycline; (Hg)mercury
[10] = Escherichia coli, read-out: MIC

Row | SMILES | MIC [2] [mg/L] | MIC [3] [mg/L] | MIC [7] [mg/L] | MIC [8] [mg/L] | further results
1 | C[C@@H]([C@H](NC(=O)[C@H](Cc1ccccc1)NC(=O)N[C@@H](Cc1c[nH]c2ccccc12)C(=O)O)C(=O)NC[C@H]1C[C@@H](O)[C@H](n2ccc(=O)[nH]c2=O)O1)N(C)C(=O)CN |  |  |  |  | MIC (Escherichia coli [1]; [10]): 256 mg/L (≈ 330 µM); MIC (Pseudomonas aeruginosa): 8 mg/L (≈ 10.3 µM); MIC (Pasteurella multocida): 64 mg/L (≈ 82.5 µM)
2 | C[C@H](N)C(=O)N(C)[C@@H](C)[C@H](NC(=O)[C@H](Cc1ccc(F)cc1)NC(=O)N[C@@H](Cc1ccc(O)cc1)C(=O)O)C(=O)NC[C@H]1C[C@@H](O)[C@H](n2ccc(=O)[nH]c2=O)O1 | 8 (≈ 10.2 µM) | 10 (≈ 12.7 µM) | 8 (≈ 10.2 µM) | 10 (≈ 12.7 µM) | MIC (Acinetobacter baumannii): ≥ 64 mg/L; MIC (Escherichia coli [1]): 4 mg/L (≈ 5.1 µM); MIC (Escherichia coli [1]; [10]): 4 mg/L (≈ 5.1 µM); MIC (Klebsiella pneumoniae [4]): ≥ 64 mg/L; MIC (Escherichia coli [5]): 8 mg/L (≈ 10.2 µM); MIC (Pseudomonas aeruginosa): 64 mg/L (≈ 81.5 µM); MIC (Citrobacter freundii): 1 mg/L (≈ 1.27 µM); MIC (Klebsiella pneumoniae [6]): 32 mg/L (≈ 40.8 µM); MIC (Pasteurella multocida): 512 mg/L (≈ 652 µM); MIC (Enterobacter cloacae): ≥ 64 mg/L; MIC (Citrobacter koseri): 16 mg/L (≈ 20.4 µM); MIC (Salmonella sp.): 8 mg/L (≈ 10.2 µM); MIC (Escherichia coli [9]): 8 mg/L (≈ 10.2 µM)
3 | CSCC[C@H](NC(=O)N[C@@H](Cc1ccc(O)cc1)C(=O)O)C(=O)N[C@H](C(=O)NC[C@H]1C[C@@H](O)[C@H](n2ccc(=O)[nH]c2=O)O1)[C@H](C)N(C)C(=O)[C@H](C)N | > 30 | > 30 | > 30 | > 30 | 
4 | C[C@H](NC(=O)N[C@@H](Cc1c[nH]c2ccccc12)C(=O)O)C(=O)N[C@H](C(=O)NC[C@H]1C[C@@H](O)[C@H](n2ccc(=O)[nH]c2=O)O1)[C@H](C)N(C)C(=O)[C@@H](N)Cc1ccc(O)cc1 [PACIDAMYCIN] | > 30 | > 30 | > 30 | > 30 | MIC (Escherichia coli [1]; [10]): 256 mg/L (≈ 318 µM); MIC (Pseudomonas aeruginosa): 16 mg/L (≈ 19.9 µM); MIC (Pasteurella multocida): 128 mg/L (≈ 159 µM)
5 | C[C@H](N)C(=O)N(C)[C@@H](C)[C@H](NC(=O)[C@H](Cc1ccccc1)NC(=O)N[C@@H](Cc1c[nH]c2ccccc12)C(=O)O)C(=O)NC[C@H]1CC(O)[C@H](n2ccc(=O)[nH]c2=O)O1 (some centres undefined) | 8 (≈ 10.1 µM) | 8 (≈ 10.1 µM) | 4 (≈ 5.06 µM) | 8 (≈ 10.1 µM) | 
6 | C[C@H](N)C(=O)N(C)[C@@H](C)[C@H](NC(=O)[C@H](Cc1ccc(-c2ccccc2)cc1)NC(=O)N[C@@H](Cc1c[nH]c2ccccc12)C(=O)O)C(=O)NC[C@H]1C[C@@H](O)[C@H](n2ccc(=O)[nH]c2=O)O1 | 4 (≈ 4.62 µM) | 10 (≈ 11.5 µM) | 4 (≈ 4.62 µM) | 8 (≈ 9.24 µM) | 
7 | C[C@H](N)C(=O)N(C)[C@@H](C)[C@H](NC(=O)[C@H](Cc1ccccc1)NC(=O)N[C@@H](Cc1ccc2ccccc2c1)C(=O)O)C(=O)NC[C@H]1C[C@@H](O)[C@H](n2ccc(=O)[nH]c2=O)O1 | 30 (≈ 37.5 µM) | 10 (≈ 12.5 µM) | 30 (≈ 37.5 µM) | 30 (≈ 37.5 µM) | 
8 | CC(C)C[C@H](NC(=O)N[C@@H](Cc1c[nH]c2ccccc12)C(=O)O)C(=O)N[C@H](C(=O)NC[C@H]1C[C@@H](O)[C@H](n2ccc(=O)[nH]c2=O)O1)[C@H](C)N(C)C(=O)CN | > 30 | > 30 | > 30 | > 30 | 
9 | C[C@H](N)C(=O)N(C)[C@@H](C)[C@H](NC(=O)[C@H](Cc1ccc(C(F)(F)F)cc1)NC(=O)N[C@@H](Cc1c[nH]c2ccccc12)C(=O)O)C(=O)NC[C@H]1C[C@@H](O)[C@H](n2ccc(=O)[nH]c2=O)O1 | 4 (≈ 4.66 µM) | 8 (≈ 9.33 µM) | 4 (≈ 4.66 µM) | 8 (≈ 9.33 µM) | 
10 | CC(C)C[C@H](N)C(=O)N(C)[C@@H](C)[C@H](NC(=O)[C@H](Cc1ccccc1)NC(=O)N[C@@H](Cc1c[nH]c2ccccc12)C(=O)O)C(=O)NC[C@H]1C[C@@H](O)[C@H](n2ccc(=O)[nH]c2=O)O1 | 30 (≈ 36.1 µM) | 10 (≈ 12 µM) | 30 (≈ 36.1 µM) | 30 (≈ 36.1 µM) | 
11 | C[C@H](N)C(=O)N(C)[C@@H](C)[C@H](NC(=O)[C@H](Cc1ccc(F)cc1)NC(=O)N[C@@H](Cc1c[nH]c2ccccc12)C(=O)O)C(=O)NC[C@H]1C[C@@H](O)[C@H](n2ccc(=O)[nH]c2=O)O1 | 8 (≈ 9.9 µM) | 8 (≈ 9.9 µM) | 4 (≈ 4.95 µM) | 8 (≈ 9.9 µM) | 

From ChEMBL document CHEMBL1136243, “Synthetic dihydropacidamycin antibiotics: a modified spectrum of activity for the pacidamycin class” (2003)
